SMILES strings stand for the structures.

In assay [1] the target is Serine/threonine-protein kinase Nek11 (Homo sapiens) (UniProt Q8NG66). As to the kind of experiment: Binding affinity to wild-type human partial length NEK11 (M1 to E313 residues) expressed in mammalian expression system assessed as residual binding level at 10 uM by Kinomescan method relative to control.
Assay [2] concerns the target NT-3 growth factor receptor (Homo sapiens) (UniProt Q16288). As to the kind of experiment: Binding affinity to wild-type human partial length TRKC (Q531 to G825 residues) expressed in mammalian expression system assessed as residual binding level at 10 uM by Kinomescan method relative to control.
In assay [3] the target is Serine/threonine-protein kinase PAK 4 (Homo sapiens) (UniProt O96013). As to the kind of experiment: Binding affinity to wild-type human partial length PAK4 (Q144 to R438 residues) expressed in bacterial expression system assessed as residual binding level at 10 uM by Kinomescan method relative to control.
The target in assay [4] is Tyrosine-protein kinase ABL2 (Homo sapiens) (UniProt P42684). As to the kind of experiment: Binding affinity to wild-type human ABL2 (A248 to G542 residues) expressed in bacterial expression system assessed as residual binding level at 10 uM by Kinomescan method relative to control.
Assay [5] deals with Ephrin type-A receptor 6 (Homo sapiens) (UniProt Q9UF33). As to the kind of experiment: Binding affinity to wild-type human partial length EPHA6 (Y700 to E1046 residues) expressed in bacterial expression system assessed as residual binding level at 10 uM by Kinomescan method relative to control.
The target of assay [6] is cAMP-dependent protein kinase catalytic subunit PRKX (Homo sapiens) (UniProt P51817). As to the kind of experiment: Binding affinity to wild-type human partial length PRKX (M1 to F358 residues) expressed in bacterial expression system assessed as residual binding level at 10 uM by Kinomescan method relative to control.
Assay [7] concerns the target Serine/threonine-protein kinase N2 (Homo sapiens) (UniProt Q16513). As to the kind of experiment: Binding affinity to wild-type human partial length PKN2 (E634 to C984 residues) expressed in bacterial expression system assessed as residual binding level at 10 uM by Kinomescan method relative to control.
In assay [8] the target is Dual specificity mitogen-activated protein kinase kinase 5 (Homo sapiens) (UniProt Q13163). As to the kind of experiment: Binding affinity to wild-type human partial length MEK5 (L98 to P448 residues) expressed in mammalian expression system assessed as residual binding level at 10 uM by Kinomescan method relative to control.
The target in assay [9] is Mitogen-activated protein kinase kinase kinase kinase 2 (Homo sapiens) (UniProt Q12851). As to the kind of experiment: Binding affinity to wild-type human partial length MAP4K2 (M1 to G318 residues) expressed in mammalian expression system assessed as residual binding level at 10 uM by Kinomescan method relative to control.
The target of assay [10] is MAP kinase-interacting serine/threonine-protein kinase 1 (Homo sapiens) (UniProt Q9BUB5). As to the kind of experiment: Binding affinity to wild-type human full length MKNK1 (M1 to L424 residues) expressed in mammalian expression system assessed as residual binding level at 10 uM by Kinomescan method relative to control.
The test system of assay [11] is Epidermal growth factor receptor (Homo sapiens), P00533 [UNDEFINED MUTATION]. As to the kind of experiment: Binding affinity to human partial length EGFR S752-I759del mutant expressed in bacterial expression system assessed as residual binding level at 10 uM by Kinomescan method relative to control.
Assay [12] concerns the target Bone morphogenetic protein receptor type-1A (Homo sapiens) (UniProt P36894). As to the kind of experiment: Binding affinity to wild-type human partial length BMPR1A (Q214 to I532 residues) expressed in bacterial expression system assessed as residual binding level at 10 uM by Kinomescan method relative to control.
Assay [13] addresses Insulin receptor-related protein (Homo sapiens) (UniProt P14616). As to the kind of experiment: Binding affinity to wild-type human partial length INSRR (R950 to E1278 residues) expressed in bacterial expression system assessed as residual binding level at 10 uM by Kinomescan method relative to control.
Assay [14] has as its target Death-associated protein kinase 2 (Homo sapiens) (UniProt Q9UIK4). As to the kind of experiment: Binding affinity to wild-type human full length DAPK2 (M1 to S370 residues) expressed in bacterial expression system assessed as residual binding level at 10 uM by Kinomescan method relative to control.
Assay [15] addresses TGF-beta receptor type-2 (Homo sapiens) (UniProt P37173). As to the kind of experiment: Binding affinity to wild-type human partial length TGFBR2 (I218 to K567 residues) expressed in bacterial expression system assessed as residual binding level at 10 uM by Kinomescan method relative to control.
The target of assay [16] is Serine/threonine-protein kinase 36 (Homo sapiens) (UniProt Q9NRP7). As to the kind of experiment: Binding affinity to wild-type human partial length STK36 (M1 to T271 residues) expressed in bacterial expression system assessed as residual binding level at 10 uM by Kinomescan method relative to control.
The target in assay [17] is Bone morphogenetic protein receptor type-1B (Homo sapiens) (UniProt O00238). As to the kind of experiment: Binding affinity to wild-type human partial length BMPR1B (D178 to L502 residues) expressed in mammalian expression system assessed as residual binding level at 10 uM by Kinomescan method relative to control.
Assay [18] deals with Inhibitor of nuclear factor kappa-B kinase subunit epsilon (Homo sapiens) (UniProt Q14164). As to the kind of experiment: Binding affinity to wild-type human full length IKK-epsilon (M1 to V716 residues) expressed in mammalian expression system assessed as residual binding level at 10 uM by Kinomescan method relative to control.
Assay [19] addresses Cyclin-dependent kinase 17 (Homo sapiens) (UniProt Q00537). As to the kind of experiment: Binding affinity to wild-type human full length PCTK2 (M1 to F523 residues) expressed in bacterial expression system assessed as residual binding level at 10 uM by Kinomescan method relative to control.
Assay [20] addresses Aurora kinase C (Homo sapiens) (UniProt Q9UQB9). As to the kind of experiment: Binding affinity to wild-type human full length AURKC (M1 to S275 residues) expressed in bacterial expression system assessed as residual binding level at 10 uM by Kinomescan method relative to control.
Assay [21] addresses Serine/threonine-protein kinase Sgk2 (Homo sapiens) (UniProt Q9HBY8). As to the kind of experiment: Binding affinity to wild-type human partial length SGK2 (L54 to C427 residues) expressed in mammalian expression system assessed as residual binding level at 10 uM by Kinomescan method relative to control.
In assay [22] the target is Ankyrin repeat and protein kinase domain-containing protein 1 (Homo sapiens) (UniProt Q8NFD2). As to the kind of experiment: Binding affinity to wild-type human partial length ANKK1 (M1 to A305 residues) expressed in mammalian expression system assessed as residual binding level at 10 uM by Kinomescan method relative to control.
Assay [23] deals with Calcium/calmodulin-dependent protein kinase type IV (Homo sapiens) (UniProt Q16566). As to the kind of experiment: Binding affinity to wild-type human partial length CAMK4 (A22 to A322 residues) expressed in bacterial expression system assessed as residual binding level at 10 uM by Kinomescan method relative to control.
For assay [24], the target named is Phosphatidylinositol 4,5-bisphosphate 3-kinase catalytic subunit beta isoform (Homo sapiens) (UniProt P42338). As to the kind of experiment: Binding affinity to wild-type human partial length PIK3CB (P118 to S1070 residues) expressed in mammalian expression system assessed as residual binding level at 10 uM by Kinomescan method relative to control.

Chain of Dual specificity mitogen-activated protein kinase kinase 5 (Homo sapiens) (Q13163 whole entry, the tested form may be a part): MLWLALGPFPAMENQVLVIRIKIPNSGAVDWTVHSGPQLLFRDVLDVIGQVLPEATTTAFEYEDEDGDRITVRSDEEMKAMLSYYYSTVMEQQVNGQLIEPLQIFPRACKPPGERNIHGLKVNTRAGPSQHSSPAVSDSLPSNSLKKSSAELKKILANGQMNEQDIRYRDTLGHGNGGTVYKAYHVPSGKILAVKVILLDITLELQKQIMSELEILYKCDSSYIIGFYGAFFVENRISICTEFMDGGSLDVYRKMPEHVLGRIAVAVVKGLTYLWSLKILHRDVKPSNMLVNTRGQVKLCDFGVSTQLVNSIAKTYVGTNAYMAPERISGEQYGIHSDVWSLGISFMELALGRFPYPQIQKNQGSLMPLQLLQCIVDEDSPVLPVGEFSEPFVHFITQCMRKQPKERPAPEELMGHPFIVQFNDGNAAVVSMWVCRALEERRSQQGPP
Chain of Epidermal growth factor receptor (Homo sapiens), P00533 [UNDEFINED MUTATION] (P00533 whole entry, looked up, stated change not applied, the tested form may be a part): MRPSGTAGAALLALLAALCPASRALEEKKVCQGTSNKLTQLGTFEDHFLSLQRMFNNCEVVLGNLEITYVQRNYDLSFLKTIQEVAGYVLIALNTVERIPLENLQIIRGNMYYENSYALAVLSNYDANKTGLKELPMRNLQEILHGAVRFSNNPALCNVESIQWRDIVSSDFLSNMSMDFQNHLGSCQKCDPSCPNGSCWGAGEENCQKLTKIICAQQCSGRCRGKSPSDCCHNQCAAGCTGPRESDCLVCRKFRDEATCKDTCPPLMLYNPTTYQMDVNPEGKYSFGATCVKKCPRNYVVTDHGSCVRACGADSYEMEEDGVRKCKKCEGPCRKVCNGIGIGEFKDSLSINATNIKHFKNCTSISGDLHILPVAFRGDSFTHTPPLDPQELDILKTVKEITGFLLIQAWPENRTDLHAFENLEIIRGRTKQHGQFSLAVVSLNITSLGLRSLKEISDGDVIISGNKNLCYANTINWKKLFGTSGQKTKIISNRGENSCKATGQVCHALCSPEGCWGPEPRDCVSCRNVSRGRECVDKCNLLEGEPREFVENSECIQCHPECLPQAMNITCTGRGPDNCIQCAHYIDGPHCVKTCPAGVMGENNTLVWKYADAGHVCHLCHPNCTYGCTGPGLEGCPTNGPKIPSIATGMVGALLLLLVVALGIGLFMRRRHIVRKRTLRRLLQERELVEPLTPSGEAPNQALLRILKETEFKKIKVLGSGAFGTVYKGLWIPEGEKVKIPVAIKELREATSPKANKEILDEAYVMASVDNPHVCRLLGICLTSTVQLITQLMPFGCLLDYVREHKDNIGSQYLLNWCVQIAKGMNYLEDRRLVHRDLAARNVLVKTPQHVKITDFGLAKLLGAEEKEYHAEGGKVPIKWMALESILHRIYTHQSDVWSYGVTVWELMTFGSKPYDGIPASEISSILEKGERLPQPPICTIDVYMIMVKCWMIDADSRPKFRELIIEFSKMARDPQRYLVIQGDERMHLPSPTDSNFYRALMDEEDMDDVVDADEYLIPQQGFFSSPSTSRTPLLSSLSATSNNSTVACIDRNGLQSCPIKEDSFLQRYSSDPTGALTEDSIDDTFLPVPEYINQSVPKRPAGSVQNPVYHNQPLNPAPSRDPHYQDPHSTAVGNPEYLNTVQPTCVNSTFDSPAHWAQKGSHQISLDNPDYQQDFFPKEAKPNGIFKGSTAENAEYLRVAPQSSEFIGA
Chain of cAMP-dependent protein kinase catalytic subunit PRKX (Homo sapiens) (P51817 whole entry, the tested form may be a part): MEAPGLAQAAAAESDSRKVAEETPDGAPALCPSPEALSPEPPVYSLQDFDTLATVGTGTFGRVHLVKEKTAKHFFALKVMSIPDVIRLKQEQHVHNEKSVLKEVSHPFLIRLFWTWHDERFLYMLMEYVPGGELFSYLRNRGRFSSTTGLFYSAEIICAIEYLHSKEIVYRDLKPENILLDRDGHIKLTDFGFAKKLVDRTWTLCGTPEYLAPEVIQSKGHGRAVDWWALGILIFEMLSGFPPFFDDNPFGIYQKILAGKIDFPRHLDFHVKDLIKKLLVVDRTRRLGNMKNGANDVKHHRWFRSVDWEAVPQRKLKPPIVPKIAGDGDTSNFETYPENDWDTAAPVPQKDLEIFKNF
Chain of Serine/threonine-protein kinase Sgk2 (Homo sapiens) (Q9HBY8 whole entry, the tested form may be a part): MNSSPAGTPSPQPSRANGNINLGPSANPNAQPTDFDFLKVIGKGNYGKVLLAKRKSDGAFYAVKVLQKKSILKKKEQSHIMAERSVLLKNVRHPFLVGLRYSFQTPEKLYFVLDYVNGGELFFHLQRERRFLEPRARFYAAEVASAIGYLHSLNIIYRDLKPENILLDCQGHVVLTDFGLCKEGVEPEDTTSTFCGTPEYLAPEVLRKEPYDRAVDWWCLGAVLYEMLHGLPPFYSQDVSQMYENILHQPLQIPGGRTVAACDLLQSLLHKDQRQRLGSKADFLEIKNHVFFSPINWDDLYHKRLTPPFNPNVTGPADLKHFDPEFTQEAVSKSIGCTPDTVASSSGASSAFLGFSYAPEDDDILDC
Chain of Serine/threonine-protein kinase PAK 4 (Homo sapiens) (O96013 whole entry, looked up, the tested form may be a part): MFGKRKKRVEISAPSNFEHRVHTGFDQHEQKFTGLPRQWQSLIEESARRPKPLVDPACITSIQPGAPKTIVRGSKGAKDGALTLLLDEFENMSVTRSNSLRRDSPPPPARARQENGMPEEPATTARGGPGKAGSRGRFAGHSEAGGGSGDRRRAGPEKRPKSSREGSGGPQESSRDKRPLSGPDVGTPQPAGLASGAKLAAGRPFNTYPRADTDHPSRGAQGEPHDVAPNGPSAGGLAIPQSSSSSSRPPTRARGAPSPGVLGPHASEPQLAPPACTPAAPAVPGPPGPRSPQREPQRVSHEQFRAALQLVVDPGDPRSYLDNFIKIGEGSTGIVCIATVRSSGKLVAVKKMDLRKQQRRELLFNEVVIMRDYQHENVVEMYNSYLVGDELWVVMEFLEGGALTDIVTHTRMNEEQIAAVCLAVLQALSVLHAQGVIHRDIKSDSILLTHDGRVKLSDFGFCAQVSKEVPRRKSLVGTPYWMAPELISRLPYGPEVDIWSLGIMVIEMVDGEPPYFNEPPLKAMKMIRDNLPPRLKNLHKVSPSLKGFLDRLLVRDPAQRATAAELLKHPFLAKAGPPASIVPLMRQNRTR
Chain of Tyrosine-protein kinase ABL2 (Homo sapiens) (P42684 whole entry, the tested form may be a part): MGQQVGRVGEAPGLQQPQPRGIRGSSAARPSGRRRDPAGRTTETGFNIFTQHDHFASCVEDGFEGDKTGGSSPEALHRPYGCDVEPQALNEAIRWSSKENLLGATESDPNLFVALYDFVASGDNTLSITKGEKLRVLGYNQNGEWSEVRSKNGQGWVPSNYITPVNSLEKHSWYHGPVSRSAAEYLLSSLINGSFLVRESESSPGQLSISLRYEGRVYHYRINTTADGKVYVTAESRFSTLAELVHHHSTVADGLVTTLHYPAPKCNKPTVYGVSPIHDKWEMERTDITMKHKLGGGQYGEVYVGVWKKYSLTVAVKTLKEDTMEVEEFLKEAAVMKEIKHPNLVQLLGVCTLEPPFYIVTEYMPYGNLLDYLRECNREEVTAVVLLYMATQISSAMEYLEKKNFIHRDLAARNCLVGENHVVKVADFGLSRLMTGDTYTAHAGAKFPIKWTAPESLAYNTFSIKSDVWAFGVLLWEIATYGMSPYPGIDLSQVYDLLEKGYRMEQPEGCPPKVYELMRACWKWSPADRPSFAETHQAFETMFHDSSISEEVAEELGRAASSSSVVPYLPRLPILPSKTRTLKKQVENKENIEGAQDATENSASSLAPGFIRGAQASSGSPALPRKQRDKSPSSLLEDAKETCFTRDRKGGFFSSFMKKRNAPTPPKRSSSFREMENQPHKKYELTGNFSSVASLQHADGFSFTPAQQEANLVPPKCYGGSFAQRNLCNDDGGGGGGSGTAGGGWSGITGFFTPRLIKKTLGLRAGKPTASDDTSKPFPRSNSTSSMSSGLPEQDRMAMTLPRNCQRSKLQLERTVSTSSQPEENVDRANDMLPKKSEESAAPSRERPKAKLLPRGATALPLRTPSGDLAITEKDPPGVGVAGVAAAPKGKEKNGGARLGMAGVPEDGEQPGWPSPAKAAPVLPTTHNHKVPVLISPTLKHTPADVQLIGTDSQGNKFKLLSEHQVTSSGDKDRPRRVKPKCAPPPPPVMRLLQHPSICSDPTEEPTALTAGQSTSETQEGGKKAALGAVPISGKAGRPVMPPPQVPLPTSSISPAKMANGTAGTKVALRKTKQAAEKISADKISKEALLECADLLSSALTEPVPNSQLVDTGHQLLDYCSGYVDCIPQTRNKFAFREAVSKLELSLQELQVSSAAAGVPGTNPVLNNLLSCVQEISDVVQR
Chain of Death-associated protein kinase 2 (Homo sapiens) (Q9UIK4 whole entry, looked up, the tested form may be a part): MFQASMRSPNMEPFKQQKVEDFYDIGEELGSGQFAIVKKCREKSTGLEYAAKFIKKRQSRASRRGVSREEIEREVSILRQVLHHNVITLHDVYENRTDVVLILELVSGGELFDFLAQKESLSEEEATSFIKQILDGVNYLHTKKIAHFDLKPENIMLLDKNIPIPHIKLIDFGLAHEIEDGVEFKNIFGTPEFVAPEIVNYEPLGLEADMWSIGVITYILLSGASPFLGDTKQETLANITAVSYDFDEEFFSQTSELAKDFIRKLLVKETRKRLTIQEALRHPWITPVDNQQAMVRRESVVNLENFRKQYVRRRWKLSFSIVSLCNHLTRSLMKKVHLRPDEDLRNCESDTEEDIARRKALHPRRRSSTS
Chain of Aurora kinase C (Homo sapiens) (Q9UQB9 whole entry, the tested form may be a part): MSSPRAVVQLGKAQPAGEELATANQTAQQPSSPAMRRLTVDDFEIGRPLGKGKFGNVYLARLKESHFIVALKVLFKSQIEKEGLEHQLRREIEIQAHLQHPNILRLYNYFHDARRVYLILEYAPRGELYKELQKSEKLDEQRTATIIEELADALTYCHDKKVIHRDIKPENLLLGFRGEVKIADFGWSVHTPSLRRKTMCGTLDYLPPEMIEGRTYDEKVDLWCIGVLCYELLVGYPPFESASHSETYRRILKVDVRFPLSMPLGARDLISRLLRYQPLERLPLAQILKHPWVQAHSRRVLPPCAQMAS

Take `O=C(Nc1cc(-c2cn(CCNc3c4c(nc5ccccc35)CCCC4)nn2)ccn1)Nc1cccc2c1C1CCCCN1C2=O` (racemic): the Activity in [1] was 100%; in [2], 14%; in assay [3] it was 14%; in [4], 22%; in [5], 97%; in assay [6], 15%. For the same molecule, the Activity in [7] is 4.8%; in assay [8], 1.6%; in assay [9], 9.2%; in [10] it was 100%; in [11], 80%; in [12], 92%. Also, the Activity in assay [13] was found to be 68%; in assay [14], 72%; in assay [15], 19%; in assay [16] it was 9.1%; in assay [17] it was 25%; in assay [18], 52%. The Activity in assay [19] came to 4.2%; in [20], 13%; in assay [21] it was 10%; in assay [22], 93%; in assay [23] it was 100%; in assay [24], 53%.

The record behind these values is ChEMBL document CHEMBL4390652, “Design, biological evaluation and X-ray crystallography of nanomolar multifunctional ligands targeting simultaneously acetylcholinesterase and glycogen synthase kinase-3” (Eur J Med Chem, 2019).
